# In article PMC10384408, “Anticancer Tungstenocenes with a Diverse Set of (O,O–), (O,S–) and (O,N–) Chelates—A Detailed Biological Study Using an Improved Evaluation via 3D Spheroid Models” (Pharmaceutics, 2023):
# What was measured:
# pUC19 plasmid = test: Electrophoretic dsDNA plasmid assay; type: biochemical; conditions: 50 µM, up to 6 h, 37 °C
# Procedure: An amount of 400 ng of the pUC19 plasmid (2686 bp, New England Biolabs, Ipswich, MA, USA) was incubated with the test compounds (50 µM). Stock solutions of the test compounds were prepared in MilliQ water. The samples were incubated for different intervals (15 min to 6 h) with continuous shaking at 37 °C. Following the incubation time, 4 µL aliquots of 6 × DNA loading dye (Thermo Fisher, Kandel, Germany) were added to the 20 µL DNA samples. Electrophoresis was performed in a 1% agarose gel in 1 × TBE buffer, started at 60 V for 5 min and continued at 120 V for 90 min. Ethidium bromide (EtBr, Serva Electrophoresis GmbH, Heidelberg, Germany) staining was conducted in 1 × TBE (0.75 µg/mL) for 20 min. Images were taken by the GelDoc Imaging System Fusion F×7 (Vilber Lourmat, Eberhardzell, Germany). For quantification ImageJ/Fiji1.46 was used.
# HT29 spheroids = test: Spheroid growth, HT29; type: cell-based, human; conditions: 10 µM, 96 h treatment
# Procedure: (§1) For growing multicellular tumor spheroids, 400 HCT116, 400 HT29 or 800 MCF-7 cells per well were plated into round-bottom ultra-low attachment 96-well plates (Corning, Glendale, AZ, USA) in the media described above and incubated at 37 °C for 96 h. Spheroids were treated with 10 µM of the two most cytotoxic compounds 3 and 4 for another 96 h. The diameters of the spheroids were measured with Cell^F software under a CKX41 Olympus microscope before treatment and in constant daily intervals over the 96 h treatment period. For statistical analysis the t-test with Welsh’s correction was implemented in GraphPad Prism software (Version 6.01).
# HCT116 spheroids = test: KI67 immunofluorescence staining of cryo-sectioned spheroids; type: cell-based, human; conditions: 72 h; for KI67+ cells: untreated control 38.1 ± 7.3 %
# Procedure: Spheroids were grown and cryosectioned, as described in the section above. For immunofluorescence staining the samples were fixed with 4% PFA (in PBS) for 15 min. The slides were washed with PBS before permeabilization with 0.1% Triton-X (Sigma-Aldrich, Steinheim, Germany) for 10 min. After three times washing with PBS the samples were stained for 45 min with 10% goat serum (G9023, Sigma-Aldrich) und 5% BSA for avoiding non-specific antibody binding. After one washing step a primary antibody against Ki67 (#9129, Cell Signaling Technology) was applied and samples incubated overnight at 4 °C. On the next day, slides were washed with PBS and incubated with goat anti-rabbit Alexa Fluor 594 (#8889 Cell Signaling Technology) for 1 h at room temperature in the dark, followed by two washing steps with PBS. Slides were mounted with ProlonGold Antifade Reagent with DAPI (Invitrogen, Thermo Fisher) and analyzed with a confocal laser scanning microscope Zeiss LSM800 (Zeiss, Jena, Germany). Images were processed with Zen software (Zeiss). For fluorescence signal intensities data extraction ImageJ/Fiji1.46 was used. For quantification, the maximum signal intensity of the KI67^+ cells was evaluated relative to the untreated control. For statistical analysis the t-test with Welsh’s correction was implemented in GraphPad Prism software (Version 6.01).
# MCF-7 spheroids = test: Spheroid growth, MCF-7; type: cell-based, human; conditions: 10 µM, 96 h treatment
# Procedure: as §1
# [1] = Cell-free DCF fluorescence quenching assay
# Procedure: To verify interactions of complex 4 with the fluorescence of DCF (2′,7′-dichlorofluorescein, Sigma-Aldrich), a fluorescence quenching assay was performed. For this purpose, DCF was dissolved in abs. ethanol (Sigma-Aldrich), diluted in phenol-red-free MEM (1% FBS) to 5 µM and complex 4 dissolved in DMF, diluted to 20 and 200 µM in the same medium. Furthermore, two combinations of 5 µM DCF with 20 and 200 µM of complex 4 were prepared. The fluorescence intensity of the substances alone and their combinations were measured (excitation: 485/20 nm, emission: 516/20 nm) in 10 min intervals with the Synergy HT reader (BioTek) over 2 h.
# HT29 cells = conditions: 200 µM
# MCF-7 cells = conditions: 200 µM
compound,measurement,setting,value
"F[P-](F)(F)(F)(F)F.O=c1c([O-])c(-c2ccc(Cl)cc2)oc2ccccc12.[W+4].c1cc[cH-]c1.c1cc[cH-]c1 [Compound 3, Bis(η^5-cyclopentadienyl)[2-(4-chlorophenyl)-3-(oxo-κO)-4(H)-chromen-4-oato-κO]tungsten(IV) hexafluorophosphate]",interaction with plasmid dsDNA,pUC19 plasmid,showing the ability to induce DNA nicks
same,spheroid growth,HT29 spheroids,completely stop spheroid growth
same,reduction in number of KI67+ cells relative to untreated control,HCT116 spheroids; 20 µM,2.4 fold
same,KI67+ cells,HCT116 spheroids; 20 µM,15.8 ± 2.8%
same,spheroid growth,MCF-7 spheroids,completely stop spheroid growth
"F[P-](F)(F)(F)(F)F.[O-]c1c(-c2ccc(Cl)cc2)oc2ccccc2c1=S.[W+4].c1cc[cH-]c1.c1cc[cH-]c1 [Compound 4, Bis(η^5-cyclopentadienyl)[2-(4-chlorophenyl)-3-(oxo-κO)-4(H)-chromen-4-thionato-κS]tungsten(IV) hexafluorophosphate]",lower fluorescence intensity relative to DCF (5 µM) alone,[1]; DCF 5 µM + complex 20 µM,36.8%
same,lower fluorescence intensity relative to DCF (5 µM) alone,[1]; DCF 5 µM + complex 200 µM,77.2%
same,spheroid growth,HT29 spheroids,completely stop spheroid growth
same,reduction in number of KI67+ cells relative to untreated control,HCT116 spheroids; 15 µM,2 fold
same,KI67+ cells,HCT116 spheroids; 15 µM,19.1 ± 1.3%
same,spheroid growth,MCF-7 spheroids,completely stop spheroid growth
"F[P-](F)(F)(F)(F)F.O=C([O-])c1ccccn1.[W+4].c1cc[cH-]c1.c1cc[cH-]c1 [Compound 5, Bis(η^5-cyclopentadienyl)[2-(carboxylato-κO)-pyridine-κN]tungsten(IV) hexafluorophosphate]",viable cells [%] AV- / PI-,HT29 cells,91.5 ± 8.9%
same,viable cells [%] AV- / PI-,MCF-7 cells,86.6 ± 7.6%
"Cc1cc(=S)c([O-])co1.F[P-](F)(F)(F)(F)F.[W+4].c1cc[cH-]c1.c1cc[cH-]c1 [Compound 8, Bis(η^5-cyclopentadienyl)[2-methyl-5-(oxo-κO)-pyran-4-(1H)-thionato-κS] tungsten(IV) hexafluorophosphate]",single-strand breaks (sc form to oc form),pUC19 plasmid,15 ± 2%
